Experimental data: paper PMC11312998, “Molecular Pro-Apoptotic Activities of Flavanone Derivatives in Cyclodextrin Complexes: New Implications for Anticancer Therapy” (International Journal of Molecular Sciences, 2024)

What was measured:
[1] = test system: HCC38; test: MTT cytotoxicity assay; assay type: cell-based; settings: Homo sapiens, 24 h incubation, mean ± SEM, read-out: Cytotoxic effect, IC50
Method: (§1) Cell viability was determined using the metabolic microplate spectrophotometric assay with Methylthiazolyl diphenyltetrazolium bromide (MTT), i.e., 3-(4,5-Dimethyl-2-thiazolyl)-2,5-diphenyl-2H-tetrazolium bromide (Sigma-Aldrich; St. Louis, MO, USA). The anticancer activity of the investigated compounds was evaluated in vitro on the basis of their ability to inhibit the proliferation of various cancer cells. The appropriate number of cells for a given cell line (6–8 × 10^3 cells/mL) were seeded into sterile, colorless 96-well microplates. After 24 h of culture, specific wells of the microplate were treated with test compounds (10–200 µmol/L concentration) and incubated in a CO2 incubator for 24 h. The medium was then removed, the cell monolayer was washed twice with sterile PBS solution and fresh culture medium was added to the wells of the microplate.
(§2) After 48 h of cell culture, the MTT test was conducted. In each well of the microplate, 50 µL of tetrazolium salt solution (final concentration 0.05 mg/mL) was added. The microplate was then placed in a CO2 incubator for 3–4 h (depending on the cell line). Following incubation, 100 µL of DMSO (dimethyl sulfoxide, Sigma-Aldrich, St. Louis, MO, USA) was added to the microplate wells to dissolve the purple formazan crystals formed in the environment of living cells. The absorbance of the formazan solution was read at a wavelength of λ = 580 nm and a reference wavelength of λ = 720 nm after gentle mixing (Biotek Power Wave HT, Biotek Instruments, Winooski, VT, USA).
(§3) The percentage of live cells was calculated by comparing the absorbance value of the tested samples with that of the control (cells not treated with compounds). Control absorbance was arbitrarily considered to be 100%.
(§4) In order to determine the contribution of ROS to the cytotoxicity of the tested compounds, the cells were pre-incubated for 1 h with the antioxidant vitamin E (Trolox, Sigma-Aldrich; St. Louis, MO, USA). Cells were seeded into sterile, colorless 96-well microplates at a concentration of 6–8 × 10^3 cells/mL, depending on the cell line. After 24 h of culture, Trolox was added at a final concentration of 50 μM/well. After 1 h of incubation, the antioxidant was washed off, then appropriate concentrations of test compounds (10–200 µmol/L concentration) were added to fresh cell culture medium and incubated for 24 h. The MTT test was then performed under identical experimental conditions, as described in Section 3.1.2.

[2] = test system: Hec-1-A; test: MTT cytotoxicity assay; assay type: cell-based; settings: Homo sapiens, 24 h incubation, mean ± SEM, read-out: Cytotoxic effect, IC50
Method: as §1, §2, §3, §4

[3] = test system: MCF-7; test: MTT cytotoxicity assay; assay type: cell-based; settings: Homo sapiens, MCF7, 24 h incubation, mean ± SEM, read-out: Cytotoxic effect, IC50
Method: as §1, §2, §3, §4

[4] = test system: MDA-MB-231; test: MTT cytotoxicity assay; assay type: cell-based; settings: Homo sapiens, 24 h incubation, mean ± SEM, read-out: Cytotoxic effect, IC50
Method: as §1, §2, §3, §4

[5] = test system: breast cancer cells (MCF-7, MDA-MB-231 and HCC38) and endometrial cancer cells (Ishikawa, Hec-1-A); test: MTT cytotoxicity assay, summary over the cell lines; assay type: cell-based, human; settings: Homo sapiens; range over the five cancer lines; read-out: IC50, range depending on the cancer line
Method: as §1, §2
The percentage of live cells was calculated by comparing the absorbance value of the tested samples with that of the control (cells not treated with compounds). Control absorbance was arbitrarily considered to be 100%. […] Moreover, cisplatin (Sigma-Aldrich, St. Louis, MO, USA) was used as a reference compound, and identical incubation conditions were used as described above.

[6] = test system: MDA-MB-231; test: Superoxide anion generation, DHE probe; assay type: cell-based, human; settings: IC50 concentration, 24 h
Method: The level of superoxide anion (O2^•−) was determined by microplate spectrofluorimetry with dihydroethidium (hydroethidine, DHE) (Life Technologies, Carlsbad, CA, USA), which is the most commonly used fluorogenic probe for monitoring the intracellular production of superoxide anion O2^•− [41]. […] Thanks to this shift, DHE can be used as a sensitive probe for cellular ROS. The reaction between superoxide and DHE generates a highly specific red fluorescent product, 2-hydroxyethidium (2-OH-E^+).
The cells were seeded in black 96-well fluorometric microplates at a density of 10 × 10^3 cells per well. […] After incubation, the medium was removed, the cell monolayer in the wells was washed twice with HBSS (140 mM NaCl, 5 mM KCl, 0.8 mM MgCl2, 1.8 mM CaCl2, 1 mM Na2HPO4, 10 mM HEPES and 1% glucose) and 50 μL of DHE solution in HBSS was added to each well (final probe concentration 5 μmol/L). Cells were incubated with the probe for 30 min in the dark in an incubator (37 °C), and then fluorescence was measured. The measurement was performed at the following excitation and fluorescence emission wavelengths: λex = 498 nm/λem = 582 nm. Fluorescence measurements were made on a Perkin-Elmer LS-5B spectrofluorometer (MA, USA). Fluorescence intensity values for control cells were arbitrarily set as 100%. The results are presented as percentages of control cell values, calculated relative to the fluorescence intensity of the controls (100%): sample fluorescence was calculated as Δf in relation to the controls.

Row | Compound | IC50 [1] [µM] | IC50 [2] [µM] | IC50 [3] [µM] | IC50 [4] [µM] | IC50 [5] [µM] | greater superoxide anion level relative to control (DHE probe) [6]
1 | O=C1/C(=C/c2ccccc2)C(c2ccccc2)Oc2ccccc21 (stereo not drawn) [Compound 5] | 25.6 ± 0.9 | 35.9 ± 2.4 | 25.1 ± 4.2 | 23.3 ± 1.4 | 18 to 36 | ~30%
2 | O=C1/C(=C/c2ccccc2)COc2ccccc21 [Compound 1] | 15.7 ± 0.8 | 18.5 ± 1.2 | 10.2 ± 0.9 | 12.6 ± 1.1 | 10 to 18 | approximately 20%
3 | COc1cccc(/C=C2/C(=O)c3ccccc3OC2c2ccccc2)c1 (stereo not drawn) [Compound 3] | 20.9 ± 1.5 | 26.9 ± 2.3 | 16.4 ± 2.3 | 15.2 ± 3.1 | 15 to 27 | approximately 20%
